Measurements: patent US20160158309A1, “EXERCISE FUNCTION ENHANCER” (KOHJIN LIFE SCIENCES CO., LTD., priority 2014, published 2016)
Entries after “also recorded” stand apart in the source; their conditions may differ.

What was measured:
[1] = Muscle tissue pH after treadmill exercise in mice; format: in vivo, ICR mice; details: exercise group vs control exercise group; oral once a day for two weeks, 2.0% solution 5 μl/g body weight; treadmill 30 minutes at 25 m/min; tibialis anterior and gastrocnemis muscle
Experimental: After anesthetic, intermuscular pH of the tibialis anterior muscle and the gastrocnemis muscle was measured using a micro-glass electrode (CMN-141, Chemical Instruments).
The experiment was conducted using 7-week-old male ICR mice (Shimizu Laboratory Supplies). After one week of preliminary care, the mice were separated into two groups based on body weight: a glutathione group (n=21) and a control group (n=21). Glutathione (KOHJIN Life Sciences Co., Ltd.) was prepared in a 2.0% solution and was administered orally once a day for two weeks to the glutathione group at a dose of 5 μl/g of body weight. The same amount of distilled water was administered orally to the control group for the same period of time. […] On the final day, the groups were further divided into a control sedentary group (n=13), a control exercise group (n=8), a glutathione sedentary group (n=13), and a glutathione exercise group (n=8). The exercise groups were given the task of running on a treadmill, after which all groups were dissected.
The exercise task employed a treadmill (MK680, Muromachi Kikai). On the day of the exercise task, the sedentary groups were dissected without performing the exercise task, while the exercise groups were given the task of running on a treadmill for 30 minutes at a speed of 25 m/min, then were dissected immediately after completing the exercise task.
All of the data was plotted with the mean value±standard error. After performing a two-way analysis of variance in comparing the four groups, a multiple comparison test (Bonferroni) was performed. Student's t-distribution test was performed when comparing two groups. Level of significance was defined at 5%.

[2] = system: PGC-1α; assay: PGC-1α amount in soleus muscle by western blot; format: in vivo, ICR mice; details: treated vs control groups; oral once a day for two weeks, 2.0% solution 5 μl/g body weight; sedentary group soleus muscle
Experimental: An amount of PGC-1α in the muscles was measured using a western blot test. Soleus muscle of a sedentary group was homogenized and protein concentration was measured using the BCA method (BCA™ Protein Assay Kit, Thermo [sequence]). The prepared protein sample was poured into 10% gel (Wako), was separated by electrophoresis, and was transferred to a membrane using a transfer device (iBlot, Invitrogen). After 30 minutes of blocking (EzBlokChemi, ATTO CORPORATION), the sample was cleaned three times for five minutes each in Tris buffered saline-(BIO-RAD Laboratories) Tween 20 (Wako) (TBST), and was reacted with a primary antibody using an anti-PGC-1α antibody (CHEMICON International) for 60 minutes at room temperature. The sample was then cleaned three times for five minutes each in TBST and was reacted with a secondary antibody using anti-rabbit antibody (GE Healthcare) for 60 minutes at room temperature. The sample was then cleaned three times for five minutes each in TBST and was reacted with a coloring agent (ECL plus, GE Healthcare) for four minutes. Using an image analysis device (ImageQuant LAS 4000, GE Healthcare), bands were detected and converted to numerical values. Thereafter, a relative ratio with respect to a control set was calculated.
The experiment was conducted using 7-week-old male ICR mice (Shimizu Laboratory Supplies). After one week of preliminary care, the mice were separated into two groups based on body weight: a glutathione group (n=21) and a control group (n=21). […] The same amount of distilled water was administered orally to the control group for the same period of time. A twelve-hour light/dark cycle was maintained in the enclosure and the mice were able to freely take food and water from a plastic gauge. On the final day, the groups were further divided into a control sedentary group (n=13), a control exercise group (n=8), a glutathione sedentary group (n=13), and a glutathione exercise group (n=8). The exercise groups were given the task of running on a treadmill, after which all groups were dissected. […]

Structure (SMILES)	Muscle tissue pH [1]	PGC-1α expression in the soleus muscles (relative ratio to control) [2]
N[C@@H](CCC(=O)N[C@@H](CS)C(=O)NCC(=O)O)C(=O)O [glutathione, γ-L-Glu-L-Cys-Gly]	significantly higher value; also recorded: no reduction in muscle tissue pH was observed	significantly higher value; also recorded: an increase in PGC-1α expression
O=C1O[C@H]([C@@H](O)CO)C(O)=C1O [vitamin C]	not observed	not observed
